Measurements from patent US7858635B2 (priority 2005, dated 2010).
Like-named read-outs stand apart in the source and are kept apart here.

What was measured:
M4 muscarinic receptor = target: T1, M4 muscarinic receptor (Homo sapiens, UniProt P08173); assay: Functional mobilization of intracellular calcium (FLIPR, Fluo-3), M4-CHO cells; format: cell-based; details: for Emax: 100% efficacy is the maximum response obtained with the Carbachol control, read-out: M4 Efficacy
T1 construct: expressed in transfected cells; host or cells: CHO cells (M4-CHO, under puromycin, zeocin and blasticidin selection)
T1 sequence (P08173 1-479): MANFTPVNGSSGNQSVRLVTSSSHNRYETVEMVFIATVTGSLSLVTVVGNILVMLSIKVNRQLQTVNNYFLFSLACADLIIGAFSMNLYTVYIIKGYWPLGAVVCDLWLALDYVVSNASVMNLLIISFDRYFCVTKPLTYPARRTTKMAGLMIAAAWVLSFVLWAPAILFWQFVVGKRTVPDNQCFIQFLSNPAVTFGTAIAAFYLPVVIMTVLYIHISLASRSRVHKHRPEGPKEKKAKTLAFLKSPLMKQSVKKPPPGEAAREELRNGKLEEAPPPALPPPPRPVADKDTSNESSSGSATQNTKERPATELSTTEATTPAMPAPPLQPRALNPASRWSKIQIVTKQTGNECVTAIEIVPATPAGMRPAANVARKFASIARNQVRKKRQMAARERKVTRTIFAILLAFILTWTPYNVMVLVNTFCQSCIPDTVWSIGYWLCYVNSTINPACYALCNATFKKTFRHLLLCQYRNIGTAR
How it was run: (§1)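 Intracellular calcium was tracked by fluorescence (488/540 nm) over 60 sec after compound addition to dye-loaded CHO cells expressing the receptor. Inhibitory activity used a 15 min pre-incubation before carbachol at the subtype EC80.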

M1 muscarinic receptor = target: T2, M1 muscarinic receptor (Homo sapiens, UniProt P11229); assay: Functional mobilization of intracellular calcium (FLIPR, Fluo-3), M1-CHO cells; format: cell-based; details: for Emax: 100% efficacy is the maximum response obtained with the Carbachol control, read-out: M1 Efficacy
T2 construct: expressed in transfected cells; host or cells: CHO cells (M1-CHO, under zeocin and G418 selection)
T2 sequence (P11229 1-460): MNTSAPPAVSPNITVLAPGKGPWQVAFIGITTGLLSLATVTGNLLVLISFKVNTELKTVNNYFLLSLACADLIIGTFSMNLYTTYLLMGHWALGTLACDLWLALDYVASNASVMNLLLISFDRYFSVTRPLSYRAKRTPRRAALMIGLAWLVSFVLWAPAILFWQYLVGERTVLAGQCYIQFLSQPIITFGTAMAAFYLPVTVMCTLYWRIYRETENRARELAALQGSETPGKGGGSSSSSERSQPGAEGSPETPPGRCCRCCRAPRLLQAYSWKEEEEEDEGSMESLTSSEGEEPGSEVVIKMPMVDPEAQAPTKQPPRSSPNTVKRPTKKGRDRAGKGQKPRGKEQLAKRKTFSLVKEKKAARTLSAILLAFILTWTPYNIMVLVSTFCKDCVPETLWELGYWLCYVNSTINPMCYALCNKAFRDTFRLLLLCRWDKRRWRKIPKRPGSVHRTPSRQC
How it was run: as §1

[1] = compound nos. 1-454, M4-CHO cells, calcium mobilization
[2] = compound nos. 1-454, M1-CHO cells, calcium mobilization

| Compound | Emax (M4 muscarinic receptor; compound nos. 1-454) | M4 Activity (M4 muscarinic receptor; [1]) | Emax (M1 muscarinic receptor; compound nos. 1-454) | M1 Activity (M1 muscarinic receptor; [2]) | Emax (M4 muscarinic receptor; compound nos. 455-509) | M4 Activity (M4 muscarinic receptor; compounds 455-509) | Emax (M1 muscarinic receptor; compound nos. 455-509) | M1 Activity (M1 muscarinic receptor; compounds 455-509) | M4 Activity (M4 muscarinic receptor; compound nos. 1-454) | M1 Activity (M1 muscarinic receptor; compound nos. 1-454) |
| --- | --- | --- | --- | --- | --- | --- | --- | --- | --- | --- |
| COCCOC(=O)N1C2CCC1CC(N1CCC3(CC1)CN(C(=O)N(C)C)c1ccc(F)cc13)C2 (centres unmarked) [compound 119, 2-methoxyethyl 3-(1-(dimethylcarbamoyl)-5-fluorospiro[indoline-3,4′-piperidine]-1′-yl)-8-azabicyclo[3.2.1]octane-8-carboxylate] | < 55% | + (activity was measured to be greater than or equal to 4.0 μM) | < 65% | +++ (activity was measured to be less than or equal to 0.7 μM) | – | – | – | – | – | – |
| CCOC(=O)N1CCC(N2CCC3(CC2)CN(C(C)=O)c2ccc(-c4ccc(S(C)(=O)=O)cc4)cc23)CC1 [compound 177] | 55 to 70% | ++ (activity was measured to be between 0.1 μM and 4.0 μM) | 65 to 85% | +++ (activity was measured to be less than or equal to 0.7 μM) | – | – | – | – | – | – |
| CCc1nsc(N2CCC(N3CCC4(CC3)CN(C(C)=O)c3ccccc34)CC2)n1 [compound 498] | – | – | – | – | 25 to 100% | ++ (activity was measured to be between 2.0 μM and 5.0 μM) | > 100% | +++ (activity was measured to be less than or equal to 2.0 μM) | – | – |
| O=C(O[C@@H]1CCOC1)N1CC2(CCN(C3CC4CCC(C3)N4C(=O)O[C@H]3CCOC3)CC2)c2cc(F)ccc21 (some centres unmarked) [compound 93] | < 55% | ++ (activity was measured to be between 0.1 μM and 4.0 μM) | < 65% | ++ (activity was measured to be between 0.7 μM and 3.0 μM) | – | – | – | – | – | – |
| CN(C)C(=O)N1CC2(CCN(CC3CCN(c4nccs4)C3)CC2)c2cc(F)ccc21 (centres unmarked) [compound 451] | – | – | – | – | – | – | – | – | +++ (activity was measured to be less than or equal to 0.1 μM) | ++ (activity was measured to be between 0.7 μM and 3.0 μM) |
| Cc1ncc(N2CCC(N3CCC4(CC3)CN(C(=O)N(C)C)c3ccccc34)CC2)nc1C [compound 487] | – | – | – | – | 25 to 100% | ++ (activity was measured to be between 2.0 μM and 5.0 μM) | > 100% | +++ (activity was measured to be less than or equal to 2.0 μM) | – | – |
| O=C(OCC(F)(F)F)N1C2CCC1CC(N1CCC3(CC1)COc1ccc(F)cc13)C2 (centres unmarked) [compound 124] | < 55% | ++ (activity was measured to be between 0.1 μM and 4.0 μM) | < 65% | +++ (activity was measured to be less than or equal to 0.7 μM) | – | – | – | – | – | – |
| CCOC(=O)N1CCC(N2CCC3(CC2)CN(C(=O)c2cc(C)oc2C)c2ccc(F)cc23)CC1 [compound 335] | < 55% | + (activity was measured to be greater than or equal to 4.0 μM) | < 65% | + (activity was measured to be greater than or equal to 3.0 μM) | – | – | – | – | – | – |
| CCOC(=O)N1CCC(CN2CCC3(CC2)CN(C(C)=O)c2ccc(Cl)cc23)CC1 [compound 256] | < 55% | ++ (activity was measured to be between 0.1 μM and 4.0 μM) | < 65% | ++ (activity was measured to be between 0.7 μM and 3.0 μM) | – | – | – | – | – | – |
| CCc1nsc(N2CCC(N3CCC4(CC3)C[C@H](N(CC(F)(F)F)C(C)=O)c3ccccc34)CC2)n1 [compound 502] | – | – | – | – | 25 to 100% | ++ (activity was measured to be between 2.0 μM and 5.0 μM) | 25 to 100% | ++ (activity was measured to be between 2.0 μM and 5.0 μM) | – | – |
| CC(=O)N[C@H]1CC2(CCN(C3CCC[C@@H](C)C3)CC2)c2ccccc21 (some centres unmarked) [compound 358] | 55 to 70% | ++ (activity was measured to be between 0.1 μM and 4.0 μM) | 65 to 85% | +++ (activity was measured to be less than or equal to 0.7 μM) | – | – | – | – | – | – |
| O=C(C1CC1)N1CC2(CCN(C3CC4CCC(C3)N4C(=O)O[C@H]3CCOC3)CC2)c2cc(F)ccc21 (some centres unmarked) [compound 57] | 55 to 70% | +++ (activity was measured to be less than or equal to 0.1 μM) | 65 to 85% | +++ (activity was measured to be less than or equal to 0.7 μM) | – | – | – | – | – | – |
| CCOC(=O)N1CCC(CN2CCC3(CC2)CN(C(C)=O)c2ccc(OC(F)(F)F)cc23)CC1 [compound 21] | < 55% | + (activity was measured to be greater than or equal to 4.0 μM) | < 65% | ++ (activity was measured to be between 0.7 μM and 3.0 μM) | – | – | – | – | – | – |
| CCOC(=O)N1C2CCC1CC(N1CCC3(CC1)CN(C(C)=O)c1ccccc13)C2 (centres unmarked) [compound 205] | < 55% | + (activity was measured to be greater than or equal to 4.0 μM) | < 65% | + (activity was measured to be greater than or equal to 3.0 μM) | – | – | – | – | – | – |
| CCOC(=O)N1CCC(N2CCC3(CC2)CN(C(=O)c2ccncc2)c2ccc(F)cc23)CC1 [compound 260] | < 55% | + (activity was measured to be greater than or equal to 4.0 μM) | 65 to 85% | +++ (activity was measured to be less than or equal to 0.7 μM) | – | – | – | – | – | – |
| CC(=O)N1CC2(CCN(C3CCCC3)CC2)c2cc(F)ccc21 [compound 343] | < 55% | +++ (activity was measured to be less than or equal to 0.1 μM) | 65 to 85% | +++ (activity was measured to be less than or equal to 0.7 μM) | – | – | – | – | – | – |
| COCCOC(=O)N1CC2(CCN(C3CC4CCC(C3)N4C(=O)O[C@@H]3CCOC3)CC2)c2cc(F)ccc21 (some centres unmarked) [compound 304] | < 55% | + (activity was measured to be greater than or equal to 4.0 μM) | 65 to 85% | +++ (activity was measured to be less than or equal to 0.7 μM) | – | – | – | – | – | – |
| CN(C)C(=O)N1CC2(CCN(C3CCN(c4cncc(Cl)n4)CC3)CC2)c2ccccc21 [compound 469] | – | – | – | – | 25 to 100% | ++ (activity was measured to be between 2.0 μM and 5.0 μM) | > 100% | +++ (activity was measured to be less than or equal to 2.0 μM) | – | – |
| Cc1ccc2c(c1)C1(CCN(CC3CC4C=CC3C4)CC1)CN2 (centres unmarked) [compound 3] | 55 to 70% | ++ (activity was measured to be between 0.1 μM and 4.0 μM) | 65 to 85% | +++ (activity was measured to be less than or equal to 0.7 μM) | – | – | – | – | – | – |
| Clc1ccc2c(c1)C1(CCN(C3CCOCC3)CC1)CO2 [compound 257] | < 55% | + (activity was measured to be greater than or equal to 4.0 μM) | > 85% | + (activity was measured to be greater than or equal to 3.0 μM) | – | – | – | – | – | – |
| O=C(C1CCC1)N1CC2(CCN(C3CC4CCC(C3)N4C(=O)O[C@@H]3CCOC3)CC2)c2cc(F)ccc21 (some centres unmarked) [compound 69] | < 55% | ++ (activity was measured to be between 0.1 μM and 4.0 μM) | < 65% | ++ (activity was measured to be between 0.7 μM and 3.0 μM) | – | – | – | – | – | – |
| CC(=O)N1CC2(CCN(C3CCN(C(=O)OC4CCC4)CC3)CC2)c2cc(C)ccc21 [compound 151] | > 70% | +++ (activity was measured to be less than or equal to 0.1 μM) | > 85% | +++ (activity was measured to be less than or equal to 0.7 μM) | – | – | – | – | – | – |
| CN(C)C(=O)N1CC2(CCN(C3CCN(c4ccc(F)cc4)CC3)CC2)c2cc(F)ccc21 [compound 439] | < 55% | – | 65 to 85% | – | – | – | – | – | +++ (activity was measured to be less than or equal to 0.1 μM) | ++ (activity was measured to be between 0.7 μM and 3.0 μM) |
| COC(=O)N1C2CCC1CC(N1CCC3(CC1)CN(C(=O)c1cc(C)n(C)n1)c1ccc(F)cc13)C2 (centres unmarked) [compound 44] | > 70% | ++ (activity was measured to be between 0.1 μM and 4.0 μM) | 65 to 85% | +++ (activity was measured to be less than or equal to 0.7 μM) | – | – | – | – | – | – |
| CC(=O)N1CC2(CCN(CC3CC4CCC3C4)CC2)c2cc(C)ccc21 (centres unmarked) [compound 118] | < 55% | + (activity was measured to be greater than or equal to 4.0 μM) | 65 to 85% | +++ (activity was measured to be less than or equal to 0.7 μM) | – | – | – | – | – | – |
